Experimental data as given in patent publication US7541020B2, “Aminoalkyl glucosaminide phosphate compounds and their use as adjuvants and immunoeffectors” (priority 1997, dated 2009).
Like-named read-outs stand apart in the source and are kept apart here.

Assays:
[1] = system: E.G7 (OVA) cells; conditions: s.c. 25 μg OVA in AGP preparation, spleen cells 21 days later
[2] = system: influenza A/HK/68; type: in vivo, ICR mice; conditions: mouse, in vivo
[3] = system: hepatitis B surface antigen (HBsAg); conditions: for % Cytotoxicity (d16, post 2°): HBsAg + 10 μg AGP-AF intranasally; for % Cytotoxicity (d8, post 3°): intranasal HBsAg + 10 μg AGP-AF
[4] = system: influenza A/HK/68; design: species or system ICR mice; conditions: mouse, in vivo
[5] = Fever response in rabbits (pyrogenicity); type: in vivo; conditions: 10 ug/kg; cumulative rise ≥1.5 degree in three rabbits is considered pyrogenic
Protocol: The AGP compounds were also evaluated for their tendency to induce a fever response in rabbits. Each compound was formulated in 10% (v/v) ethanol/water solution at 100 mg/ml, then diluted with D5W to the desired concentration. The material was injected at 3 ml/kg body weight into 3 rabbits. The rise in core temperature of the rabbits was recorded.

[6] = system: hepatitis B surface antigen (HBsAg); test: Serum anti-HBsAg antibody titers after intranasal HBsAg + AGP-AF (ELISA); type: in vivo, BALB/c mice; conditions: for Anti HBsAg Titer^−1 IgG1 / Anti HBsAg Titer^−1 IgG2a: K = 10^3
[7] = system: hepatitis B surface antigen (HBsAg); test: Vaginal wash anti-HBsAg antibody after intranasal HBsAg + AGP-AF; type: in vivo, BALB/c mice; conditions: 10 days after the booster immunization; intranasal HBsAg + 10 μg AGP-AF
Excerpt: Vaginal samples were collected 10 days after the booster immunization and assayed for anti-HBsAg antibody.

[8] = day 22 post 2°, HBsAg + 10 μg AGP-AF intranasally
[9] = serum, day 21 post 3°, intranasal HBsAg + 10 μg AGP-AF

Substance	% Cytotoxicity ([1]; E:T 12.5:1) [%]	% Cytotoxicity ([1]; E:T 25:1) [%]	% Cytotoxicity ([1]; E:T 50:1) [%]	Percent Survival [2] [%]	Titer−1 IgG1 [2]	Titer−1 IgG2a [2]	Titer−1 IgG2b [2]	Titer−1 Total IgG [2]	% Cytotoxicity (d16, post 2°) ([3]; E/T 6.25:1) [%]	% Cytotoxicity (d8, post 3°) ([3]; E/T 6.25:1) [%]	% Cytotoxicity (d16, post 2°) ([3]; E/T 12.5:1) [%]	% Cytotoxicity (d8, post 3°) ([3]; E/T 12.5:1) [%]	% Cytotoxicity (d16, post 2°) ([3]; E/T 25:1) [%]	% Cytotoxicity (d8, post 3°) ([3]; E/T 25:1) [%]	% Cytotoxicity (d16, post 2°) ([3]; E/T 50:1) [%]	% Cytotoxicity (d8, post 3°) ([3]; E/T 50:1) [%]	IgG Titer-1 post 1° [4]	IgG Titer-1 post 2° [4]	Percent Survival post 1° [4] [%]	Percent Survival post 2° [4] [%]	other results
3-Hydroxy-(S)-2-[(R)-3-decanoyloxytetradecanoylamino]propyl 2-Deoxy-4-O-phosphono-2-[(R)-3-decanoyloxytetradecanoylamino]-3-O-[(R)-3-decanoyloxytetradecanoyl]-β-D-glucopyranoside Triethylammonium Salt [B5]	11	18	28	44	200	50	400	800	11	12	20	19	30	30	43	44	1600	>102,400	60	90	PYROGENICITY Total Rise ° C., 3 rabbits [5]: 4.1 °C; Anti HBsAg Titer^−1 IgA [6, 8]: 3,200; Anti HBsAg Titer^−1 IgG1 [6, 8]: 256K; Anti HBsAg Titer^−1 IgG2a [6, 8]: 500K; Anti HBsAg Titer^−1 IgG1 [6, 9]: 500K; Anti HBsAg Titer^−1 IgG2a [6, 9]: 1000K; Anti HBsAg Titer^−1 IgA [6, 9]: 12,800; Vaginal Wash Anti-HBsAg Titer^−1 IgA [7]: 1600; Vaginal Wash Anti-HBsAg Titer^−1 IgG [7]: 1600
3-Hydroxy-(S)-2-[(R)-3-undecanoyloxytetradecanoylamino]propyl 2-Deoxy-4-O-phosphono-2-[(R)-3-undecanoyloxytetradecanoylamino]-3-O-[(R)-3-undecanoyloxytetradecanoyl]-β-D-glucopyranoside Triethylammonium Salt [B4]	60	66	72	60	400	100	1600	3200	7	5	9	9	17	15	28	23	800	25,600	50	70	PYROGENICITY Total Rise ° C., 3 rabbits [5]: 3.4 °C; Anti HBsAg Titer^−1 IgA [6, 8]: 6,400; Anti HBsAg Titer^−1 IgG1 [6, 8]: 500K; Anti HBsAg Titer^−1 IgG2a [6, 8]: 1000K; Anti HBsAg Titer^−1 IgG1 [6, 9]: 1000K; Anti HBsAg Titer^−1 IgG2a [6, 9]: 2000K; Anti HBsAg Titer^−1 IgA [6, 9]: 25,600; Vaginal Wash Anti-HBsAg Titer^−1 IgA [7]: 6400; Vaginal Wash Anti-HBsAg Titer^−1 IgG [7]: 1600
